Experimental data published in ChEMBL document CHEMBL1201862, “PubChem BioAssay data set” (2004).
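Growth conditions: 96-well plates. Treatment: test compound, 48 hours, 5 concentrations. Analysis: linear interpolation between bracketing concentrations; unreached endpoints set to highest concentration. GI50 marks 50% less growth.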 Active and inactive are the calls of the source. No stated cut-off is given here; in the data, active = GI50 up to about 1.1 µM and inactive = higher.

Legend:
Assay in all cases: NCI tumour cell line growth inhibition, 48 h
[1] = test system: MCF7
[2] = test system: U-251
[3] = test system: NCI/ADR-RES
[4] = test system: CCRF-CEM
[5] = test system: BT-549
[6] = test system: HT-29
[7] = test system: SK-MEL-2
[8] = test system: UACC-62
[9] = test system: MOLT-4
[10] = test system: IGROV-1
[11] = test system: OVCAR-3
[12] = test system: SNB-75
[13] = test system: CAKI-1
[14] = test system: NCI-H522
[15] = test system: M14
[16] = test system: SN12C
[17] = test system: HCT-116
[18] = test system: MDA-N
[19] = test system: TK-10

Measured: GI50

CC1C=C(NCC2(CO)CCC2)N=C(N)N1 (configuration not stated)
inactive: [1] > 100 µM | [2] > 100 µM | [3] > 100 µM | [4] > 100 µM | [5] > 100 µM | [6] > 100 µM | [7] > 100 µM | [8] > 100 µM | [9] > 100 µM | [10] > 100 µM | [11] > 100 µM | [12] > 100 µM | [13] > 100 µM | [14] > 100 µM | [15] > 100 µM | [16] > 100 µM | [17] > 100 µM | [18] > 100 µM

Cn1c(=O)c2ccccc2c2ccccc21
inactive: [1] 31.5 µM | [19] 34.1 µM | [2] 57.1 µM | [3] 37 µM | [4] 66.5 µM | [5] 39.6 µM | [6] 40.2 µM | [7] 89.1 µM | [8] 39.8 µM | [11] 52.7 µM | [12] 44.9 µM | [13] 24.7 µM | [14] 36.6 µM | [15] 49.7 µM | [16] 49.2 µM | [17] 45 µM | [18] 47.8 µM

COC1(OC)CCc2c(sc3ncnc(Nc4cccc(Br)c4)c23)C1
inactive: [1] 40.5 µM | [19] 10.6 µM | [2] 61.5 µM | [3] 25.5 µM | [5] 94.2 µM | [6] 20 µM | [7] > 100 µM | [8] 47.2 µM | [9] 14.2 µM | [10] 16.7 µM | [11] > 100 µM | [12] 26.5 µM | [13] 30.6 µM | [14] 12.4 µM | [15] 44.4 µM | [16] 68.4 µM | [17] 39.3 µM | [18] 35.4 µM

C=CCCCCCCC#CCCCCCCCCCC[C@@H]1C(=O)O[C@H](C)[C@@H]1O.CCCCCCCCC#CCCCCCCCCCC[C@@H]1C(=O)O[C@H](C)[C@@H]1O
inactive: [1] 15.4 µM | [19] 15.7 µM | [2] 18.7 µM | [3] 9.59 µM | [5] 15.5 µM | [7] 14.7 µM | [9] 12.6 µM | [10] 15.7 µM | [11] 20.2 µM | [12] 16.7 µM | [13] 15.5 µM | [14] 5.32 µM | [15] 17.3 µM | [16] 15.3 µM | [17] 16.2 µM | [18] 23.2 µM

NCC(O)CNCC/C=C\C/C=C\C/C=C\C/C=C\C/C=C\C/C=C\CCCCC/C=C\CCNCC(O)CN (configuration not stated)
inactive: [1] 2.15 µM | [19] 1.57 µM | [2] 1.72 µM | [3] 1.47 µM | [5] 2.94 µM | [6] 1.75 µM | [7] 1.81 µM | [8] 1.79 µM | [9] 1.24 µM | [10] 1.71 µM | [11] 1.98 µM | [12] 1.73 µM | [13] 2.08 µM | [14] 1.53 µM | [15] 1.94 µM | [16] 1.64 µM | [17] 1.78 µM | [18] 1.67 µM

Cc1n[nH]c(=O)n1/N=C/c1ccc([N+](=O)[O-])cc1
inactive: [1] > 100 µM | [19] > 100 µM | [2] > 100 µM | [3] > 100 µM | [4] > 100 µM | [5] > 100 µM | [6] > 100 µM | [7] > 100 µM | [8] > 100 µM | [9] > 100 µM | [11] > 100 µM | [12] 41.1 µM | [13] 30.1 µM | [14] > 100 µM | [16] > 100 µM | [17] > 100 µM | [18] > 100 µM

N#CCCN(CCC#N)c1ccc(C(/N=N/c2ccc(Cl)cc2)=N\c2ccccc2)cc1
inactive: [1] 11.7 µM | [19] 15.5 µM | [2] 17.6 µM | [3] 10.8 µM | [5] 3.33 µM | [6] 17.9 µM | [7] 2.09 µM | [8] 6.49 µM | [9] 22.7 µM | [10] 11.7 µM | [11] 9.77 µM | [12] 17.4 µM | [13] 12.2 µM | [14] 15.1 µM | [15] 12.9 µM | [16] 18.4 µM | [17] 12.1 µM | [18] 10.9 µM

O=C(c1ccccc1)c1ccc2c(c1)nc1n2C(c2c(Cl)cccc2Cl)SC1 (configuration not stated)
inactive: [1] 39.4 µM | [19] > 100 µM | [2] 69.5 µM | [3] 40.3 µM | [5] 77.1 µM | [6] 56.1 µM | [7] > 100 µM | [8] 74.1 µM | [9] 31.4 µM | [10] > 100 µM | [11] 38.8 µM | [12] 28.4 µM | [13] 70.6 µM | [14] 55.8 µM | [15] 48.2 µM | [16] > 100 µM | [17] 29 µM | [18] 41.7 µM

O=c1[nH]cc(F)c(=O)[nH]1 [FLUOROURACIL]
inactive: [1] 1.75 µM | [19] 136 µM | [2] 44.3 µM | [3] 41.3 µM | [4] 35.2 µM | [5] 110 µM | [7] 372 µM | [8] 13.9 µM | [9] 14 µM | [10] 14.3 µM | [11] 27.3 µM | [12] 181 µM | [13] 4.45 µM | [14] 37 µM | [15] 46.5 µM | [16] 24.9 µM | [18] 8.07 µM

Cc1ccc([N+](=O)[O-])cc1S(=O)(=O)Nc1ccc(C2=NNC(c3ccccc3)C2)cc1 (configuration not stated)
inactive: [1] 14.9 µM | [19] 19.8 µM | [3] 21.1 µM | [5] 18.4 µM | [6] 27.4 µM | [7] 18.5 µM | [8] 9.33 µM | [9] 6.64 µM | [10] 16.3 µM | [11] 4.74 µM | [12] 24.8 µM | [13] 11.9 µM | [14] 13.8 µM | [15] 21.4 µM | [16] 19.5 µM | [17] 13.1 µM | [18] 23.9 µM

O=S(=O)(O)/C(=N\c1cccc(Cc2ccccc2)c1)Nc1cccc(Cc2ccccc2)c1
inactive: [1] 19.2 µM | [19] 19.8 µM | [2] 19.6 µM | [3] 18.2 µM | [4] 27.2 µM | [5] 17.7 µM | [6] 18 µM | [7] 21.6 µM | [8] 16.5 µM | [9] 32.1 µM | [10] 16.6 µM | [12] 16.1 µM | [13] 42.5 µM | [14] 14.9 µM | [15] 16.4 µM | [16] 19.5 µM | [17] 14.9 µM | [18] 20.4 µM
